ChEMBL document CHEMBL5291721, “A preclinical secondary pharmacology resource illuminates target-adverse drug reaction associations of marketed drugs” (Nat Commun, 2023)

Tests used:
[1] = target: T1, Alpha-2A adrenergic receptor (Homo sapiens, UniProt P08913); format: functional, cell-based
T1 sequence (P08913 whole entry): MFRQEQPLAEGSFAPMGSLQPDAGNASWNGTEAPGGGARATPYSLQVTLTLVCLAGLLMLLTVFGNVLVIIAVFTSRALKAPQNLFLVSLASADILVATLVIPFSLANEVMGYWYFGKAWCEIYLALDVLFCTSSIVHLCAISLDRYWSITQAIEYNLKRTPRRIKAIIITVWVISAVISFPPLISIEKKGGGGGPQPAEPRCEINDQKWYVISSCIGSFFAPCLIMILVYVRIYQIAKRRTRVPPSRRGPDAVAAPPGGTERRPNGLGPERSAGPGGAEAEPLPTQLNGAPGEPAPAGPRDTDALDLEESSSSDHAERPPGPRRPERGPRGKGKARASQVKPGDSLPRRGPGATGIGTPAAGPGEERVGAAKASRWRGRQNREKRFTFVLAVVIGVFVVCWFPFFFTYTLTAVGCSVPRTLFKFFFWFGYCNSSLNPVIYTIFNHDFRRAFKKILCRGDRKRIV

[2] = target: Voltage-dependent L-type calcium channel subunit alpha-1C (Rattus norvegicus, UniProt P22002); format: functional
Sequence of Voltage-dependent L-type calcium channel subunit alpha-1C (P22002 whole entry): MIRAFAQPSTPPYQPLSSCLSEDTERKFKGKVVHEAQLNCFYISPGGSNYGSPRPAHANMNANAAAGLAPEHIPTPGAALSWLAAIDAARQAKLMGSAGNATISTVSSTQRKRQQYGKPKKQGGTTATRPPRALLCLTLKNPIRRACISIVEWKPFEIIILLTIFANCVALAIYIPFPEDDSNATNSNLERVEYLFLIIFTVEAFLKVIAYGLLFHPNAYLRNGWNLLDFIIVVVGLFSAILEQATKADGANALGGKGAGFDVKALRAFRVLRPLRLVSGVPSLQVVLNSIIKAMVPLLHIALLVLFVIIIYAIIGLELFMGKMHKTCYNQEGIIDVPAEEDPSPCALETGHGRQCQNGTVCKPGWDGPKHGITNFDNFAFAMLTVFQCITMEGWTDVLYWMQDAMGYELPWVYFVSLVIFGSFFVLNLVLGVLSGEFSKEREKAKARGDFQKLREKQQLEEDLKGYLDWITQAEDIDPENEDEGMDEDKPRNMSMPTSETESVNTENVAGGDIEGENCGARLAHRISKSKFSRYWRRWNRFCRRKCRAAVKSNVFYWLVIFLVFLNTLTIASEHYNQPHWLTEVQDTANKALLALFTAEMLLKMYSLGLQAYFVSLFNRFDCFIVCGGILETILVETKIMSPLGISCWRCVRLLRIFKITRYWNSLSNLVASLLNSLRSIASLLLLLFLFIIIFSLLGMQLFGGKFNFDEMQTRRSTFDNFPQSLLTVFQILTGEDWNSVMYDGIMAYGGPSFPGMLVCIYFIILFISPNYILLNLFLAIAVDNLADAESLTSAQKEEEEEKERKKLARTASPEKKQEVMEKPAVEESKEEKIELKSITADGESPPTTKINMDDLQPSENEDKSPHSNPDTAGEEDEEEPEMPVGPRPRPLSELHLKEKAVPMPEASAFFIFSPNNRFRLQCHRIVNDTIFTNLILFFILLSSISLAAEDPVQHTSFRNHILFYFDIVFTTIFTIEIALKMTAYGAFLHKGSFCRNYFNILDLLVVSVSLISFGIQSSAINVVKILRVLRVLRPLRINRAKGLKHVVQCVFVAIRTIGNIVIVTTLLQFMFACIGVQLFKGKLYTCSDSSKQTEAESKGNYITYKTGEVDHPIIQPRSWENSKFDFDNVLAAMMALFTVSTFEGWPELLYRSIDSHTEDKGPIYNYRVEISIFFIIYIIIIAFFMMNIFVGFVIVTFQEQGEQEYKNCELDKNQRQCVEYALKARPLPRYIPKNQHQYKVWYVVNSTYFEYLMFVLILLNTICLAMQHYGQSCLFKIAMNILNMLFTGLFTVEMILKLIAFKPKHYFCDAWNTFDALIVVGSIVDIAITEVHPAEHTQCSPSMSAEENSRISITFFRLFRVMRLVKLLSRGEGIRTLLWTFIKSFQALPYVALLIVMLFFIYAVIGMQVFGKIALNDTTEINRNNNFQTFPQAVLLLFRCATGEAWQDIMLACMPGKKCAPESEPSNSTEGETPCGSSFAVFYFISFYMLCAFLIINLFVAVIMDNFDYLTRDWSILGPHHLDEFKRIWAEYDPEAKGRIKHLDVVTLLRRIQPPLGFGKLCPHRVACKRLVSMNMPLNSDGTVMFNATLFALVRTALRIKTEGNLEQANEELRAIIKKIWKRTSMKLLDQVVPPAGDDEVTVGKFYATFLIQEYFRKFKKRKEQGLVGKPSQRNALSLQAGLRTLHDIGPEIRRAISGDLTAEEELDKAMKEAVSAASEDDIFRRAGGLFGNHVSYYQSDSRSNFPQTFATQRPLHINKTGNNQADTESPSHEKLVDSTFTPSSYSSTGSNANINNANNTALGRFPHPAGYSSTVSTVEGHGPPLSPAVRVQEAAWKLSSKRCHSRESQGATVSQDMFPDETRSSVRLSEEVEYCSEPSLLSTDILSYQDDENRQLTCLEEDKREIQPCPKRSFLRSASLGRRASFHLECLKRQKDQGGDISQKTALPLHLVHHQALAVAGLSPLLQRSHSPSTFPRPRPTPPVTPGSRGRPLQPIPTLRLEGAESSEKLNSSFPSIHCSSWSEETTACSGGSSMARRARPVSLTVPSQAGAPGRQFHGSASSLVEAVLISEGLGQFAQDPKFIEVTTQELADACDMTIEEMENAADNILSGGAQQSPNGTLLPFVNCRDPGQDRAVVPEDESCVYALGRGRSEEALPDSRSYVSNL

[3] = target: 5-hydroxytryptamine receptor 2B (Homo sapiens, UniProt P41595); format: functional, cell-based
Sequence of 5-hydroxytryptamine receptor 2B (P41595 whole entry): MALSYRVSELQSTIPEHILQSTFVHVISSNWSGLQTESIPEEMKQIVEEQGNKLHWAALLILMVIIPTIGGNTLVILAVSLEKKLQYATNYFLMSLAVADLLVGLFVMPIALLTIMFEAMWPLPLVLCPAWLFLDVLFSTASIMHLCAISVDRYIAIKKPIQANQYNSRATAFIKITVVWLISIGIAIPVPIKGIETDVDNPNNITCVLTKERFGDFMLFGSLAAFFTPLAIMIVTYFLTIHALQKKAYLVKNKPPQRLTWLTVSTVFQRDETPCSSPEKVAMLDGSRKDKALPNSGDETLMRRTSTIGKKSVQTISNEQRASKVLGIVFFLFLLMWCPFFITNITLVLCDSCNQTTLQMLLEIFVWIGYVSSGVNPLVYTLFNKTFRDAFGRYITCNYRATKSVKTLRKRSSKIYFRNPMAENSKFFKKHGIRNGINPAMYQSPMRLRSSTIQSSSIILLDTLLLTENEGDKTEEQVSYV

Histamine H3 receptor = Histamine H3 receptor (Homo sapiens, UniProt Q9Y5N1)
Sequence of Histamine H3 receptor (Q9Y5N1 whole entry): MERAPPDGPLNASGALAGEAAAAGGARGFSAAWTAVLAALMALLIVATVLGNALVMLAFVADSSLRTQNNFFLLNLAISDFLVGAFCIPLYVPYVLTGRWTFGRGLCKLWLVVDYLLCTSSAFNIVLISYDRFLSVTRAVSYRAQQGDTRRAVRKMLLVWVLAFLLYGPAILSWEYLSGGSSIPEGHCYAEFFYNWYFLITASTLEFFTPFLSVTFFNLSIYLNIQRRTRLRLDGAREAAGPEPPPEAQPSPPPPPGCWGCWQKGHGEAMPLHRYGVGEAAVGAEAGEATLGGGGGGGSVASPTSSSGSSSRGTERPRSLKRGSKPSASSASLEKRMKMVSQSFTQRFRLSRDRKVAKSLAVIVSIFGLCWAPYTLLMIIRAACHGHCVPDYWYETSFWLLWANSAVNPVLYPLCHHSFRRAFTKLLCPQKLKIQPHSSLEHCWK

Mu-type opioid receptor = Mu-type opioid receptor (Homo sapiens, UniProt P35372)
Sequence of Mu-type opioid receptor (P35372 whole entry): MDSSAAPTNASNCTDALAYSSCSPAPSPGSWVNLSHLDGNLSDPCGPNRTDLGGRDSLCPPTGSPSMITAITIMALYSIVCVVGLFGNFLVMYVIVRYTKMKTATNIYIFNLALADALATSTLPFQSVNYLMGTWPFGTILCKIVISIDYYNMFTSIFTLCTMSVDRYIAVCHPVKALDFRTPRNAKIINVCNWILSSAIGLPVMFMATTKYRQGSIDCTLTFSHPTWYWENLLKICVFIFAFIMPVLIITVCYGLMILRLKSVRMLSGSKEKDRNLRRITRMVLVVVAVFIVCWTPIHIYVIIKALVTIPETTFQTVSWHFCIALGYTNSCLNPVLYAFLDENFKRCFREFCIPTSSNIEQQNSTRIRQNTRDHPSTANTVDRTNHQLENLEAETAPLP

[4] = target: T2, Muscarinic acetylcholine receptor M1 (Homo sapiens, UniProt P11229); format: functional
T2 sequence (P11229 whole entry): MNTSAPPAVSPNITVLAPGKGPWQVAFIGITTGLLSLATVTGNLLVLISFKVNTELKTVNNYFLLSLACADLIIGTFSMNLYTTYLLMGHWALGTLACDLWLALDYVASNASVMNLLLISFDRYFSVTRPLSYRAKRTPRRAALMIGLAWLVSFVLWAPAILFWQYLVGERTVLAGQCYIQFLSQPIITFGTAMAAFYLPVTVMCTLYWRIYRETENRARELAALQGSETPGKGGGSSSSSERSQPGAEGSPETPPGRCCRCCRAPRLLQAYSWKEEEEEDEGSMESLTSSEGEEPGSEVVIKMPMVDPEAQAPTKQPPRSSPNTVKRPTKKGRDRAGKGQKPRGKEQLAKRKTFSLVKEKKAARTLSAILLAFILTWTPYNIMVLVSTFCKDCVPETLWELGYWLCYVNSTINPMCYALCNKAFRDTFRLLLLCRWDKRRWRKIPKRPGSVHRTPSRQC

Cannabinoid receptor 1 = Cannabinoid receptor 1 (Homo sapiens, UniProt P21554); format: functional, cell-based
Sequence of Cannabinoid receptor 1 (P21554 whole entry): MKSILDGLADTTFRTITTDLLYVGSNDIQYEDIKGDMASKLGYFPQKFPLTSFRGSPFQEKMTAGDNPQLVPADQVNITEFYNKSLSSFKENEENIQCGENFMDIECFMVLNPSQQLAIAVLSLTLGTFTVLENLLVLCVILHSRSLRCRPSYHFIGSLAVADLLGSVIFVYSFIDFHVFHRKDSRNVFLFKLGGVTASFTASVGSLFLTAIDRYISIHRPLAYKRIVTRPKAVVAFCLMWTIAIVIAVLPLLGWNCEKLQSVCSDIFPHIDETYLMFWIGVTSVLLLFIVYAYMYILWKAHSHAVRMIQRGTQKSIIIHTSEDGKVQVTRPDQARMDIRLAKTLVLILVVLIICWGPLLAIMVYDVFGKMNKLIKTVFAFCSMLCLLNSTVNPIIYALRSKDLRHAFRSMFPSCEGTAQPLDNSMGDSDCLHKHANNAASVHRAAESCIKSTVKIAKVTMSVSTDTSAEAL

[5] = target: T3, Muscarinic acetylcholine receptor M2 (Homo sapiens, UniProt P08172)
T3 sequence (P08172 whole entry): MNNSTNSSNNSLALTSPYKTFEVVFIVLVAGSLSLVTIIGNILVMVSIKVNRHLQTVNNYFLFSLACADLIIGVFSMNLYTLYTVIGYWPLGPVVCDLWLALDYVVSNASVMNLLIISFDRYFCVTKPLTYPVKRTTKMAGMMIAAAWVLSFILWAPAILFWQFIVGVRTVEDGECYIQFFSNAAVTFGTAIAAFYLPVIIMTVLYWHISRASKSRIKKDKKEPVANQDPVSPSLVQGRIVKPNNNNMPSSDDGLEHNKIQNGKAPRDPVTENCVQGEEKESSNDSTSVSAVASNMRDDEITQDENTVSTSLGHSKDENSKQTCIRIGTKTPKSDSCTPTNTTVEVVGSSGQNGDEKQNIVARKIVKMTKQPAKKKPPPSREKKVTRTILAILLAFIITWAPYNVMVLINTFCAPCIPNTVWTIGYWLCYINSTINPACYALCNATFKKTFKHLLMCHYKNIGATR

Progesterone receptor = target: T4, Progesterone receptor (Homo sapiens, UniProt P06401); format: functional
T4 sequence (P06401 whole entry): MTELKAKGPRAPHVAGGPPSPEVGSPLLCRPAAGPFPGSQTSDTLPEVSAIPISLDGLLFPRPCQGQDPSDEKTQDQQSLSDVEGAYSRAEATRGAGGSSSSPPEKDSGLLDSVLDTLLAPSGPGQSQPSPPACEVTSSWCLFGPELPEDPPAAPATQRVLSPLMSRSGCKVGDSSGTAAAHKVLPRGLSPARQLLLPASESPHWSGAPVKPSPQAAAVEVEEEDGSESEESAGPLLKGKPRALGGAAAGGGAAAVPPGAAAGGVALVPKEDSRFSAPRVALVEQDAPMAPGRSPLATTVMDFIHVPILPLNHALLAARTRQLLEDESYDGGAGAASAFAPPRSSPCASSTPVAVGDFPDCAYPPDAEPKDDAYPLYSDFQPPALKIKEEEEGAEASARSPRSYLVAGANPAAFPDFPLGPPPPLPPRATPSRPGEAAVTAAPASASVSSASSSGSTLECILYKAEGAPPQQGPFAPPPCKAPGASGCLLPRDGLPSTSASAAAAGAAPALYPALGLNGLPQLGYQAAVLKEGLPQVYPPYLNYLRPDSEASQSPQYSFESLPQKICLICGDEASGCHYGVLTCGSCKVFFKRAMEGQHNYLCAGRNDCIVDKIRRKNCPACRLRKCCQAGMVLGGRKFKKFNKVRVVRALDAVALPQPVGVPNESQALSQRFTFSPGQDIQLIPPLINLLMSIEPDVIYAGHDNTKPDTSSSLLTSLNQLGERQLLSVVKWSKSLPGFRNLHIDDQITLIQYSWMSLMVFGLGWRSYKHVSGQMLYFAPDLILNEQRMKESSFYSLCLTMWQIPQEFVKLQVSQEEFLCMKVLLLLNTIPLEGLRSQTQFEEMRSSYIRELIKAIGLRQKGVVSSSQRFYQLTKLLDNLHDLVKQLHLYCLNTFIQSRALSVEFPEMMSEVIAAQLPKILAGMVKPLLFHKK
Further: assay procedure not described here.

SMILES | AC50 [1] | AC50 [2] | AC50 [3] | AC50 (Histamine H3 receptor) | AC50 (Mu-type opioid receptor) | AC50 [4] | AC50 (Cannabinoid receptor 1) | AC50 [5] | AC50 (Progesterone receptor)
CCC(=O)O[C@]1(C(=O)SCF)[C@H](C)C[C@H]2[C@@H]3C[C@H](F)C4=CC(=O)C=C[C@]4(C)[C@@]3(F)[C@@H](O)C[C@@]21C [FLUTICASONE PROPIONATE] | > 30 µM | > 30 µM | > 30 µM | > 30 µM | > 30 µM | > 30 µM | > 30 µM | > 30 µM | 
CC[C@@H]([C@H](C)O)n1ncn(-c2ccc(N3CCN(c4ccc(OC[C@@H]5CO[C@@](Cn6cncn6)(c6ccc(F)cc6F)C5)cc4)CC3)cc2)c1=O [POSACONAZOLE] |  |  | > 30 µM | > 30 µM | > 30 µM | > 30 µM |  | > 30 µM | > 30 µM
O=[N+]([O-])c1ccc(O)c2ncccc12 [NITROXOLINE] | > 30 µM |  | > 30 µM | > 30 µM | > 30 µM | 8.5 µM | > 30 µM | > 30 µM | 
